Legend:
[1] = tested on: immortalized human keratinocyte cell line HaCaT; assay: MTT in vitro cytotoxicity assay, normal cells; assay type: cell-based; conditions: 48 h
Procedure: Consequently, the IrL1 complex doses of 1 μM, 3 μM and 5 μM were selected for further experimental analysis. Furthermore, the possible cytotoxic effects of IrL1 on normal cell line were also examined on the immortalized human keratinocyte cell line HaCaT.
Cytotoxicity study of all the synthesized compounds against triple negative breast cancer cells MDA-MB-468 and immortalized human keratinocyte cell line HaCaT were done with a drug incubation period of 48 h by following standard procedure that were mentioned in ESI. ^† Preliminary studies were done to understand the mode of action of the complex to induce cytotoxicity using flow cytometric methods. […]
(§1) In vitro cytotoxicity study was measured by standard MTT assay protocol.1 First the prepared complexes (IrL1-IrL5) were dissolved in 0.1% DMSO followed by dilution with DMEM medium. […] Then the resultant suspension was kept on micro vibrator for 10 min and the absorbance was recorded at λ = 570 nm in ELISA plate reader. […] The data were represented as the growth inhibition percentage i.e. % growth inhibition = 100 − [(AD × 100)/AB], where AD, measured absorbance in wells which contain samples and AB, measured absorbance for blank wells (cells with a medium and a vehicle). […]

MDA-MB-468 cells [2] = assay: Cell cycle analysis; assay type: cell-based; conditions: 5 μM
Procedure: The IrL1 complex exerted a G0/G1 cell cycle arrest at the highest tested concentration of 5 μM. The effects of various concentrations of IrL1 complex on the cell cycle of breast cancer cell line MDA-MB-468 cells were further explored by cell cycle analysis.

MDA-MB-468 cells [3] = assay: Annexin V-FITC/PI apoptosis assay; assay type: cell-based; conditions: 3 μM
MDA-MB-468 cells [4] = assay: ROS generation, DCFDA staining; assay type: cell-based
Procedure: Our results indicated a dose dependent increase in ROS production in the MDA-MB-468 cells treated with IrL1 concentrations 1 μM and 3 μM. The extent of ROS production is indicated by the 2′,7′-dichlorofluorescein (DCF) formed by the deacetylation and subsequent oxidation of 2′,7′-dichlorofluorescin diacetate (DCFDA) through cellular esterases and ROS. […] ROS production was absent in untreated control. However, in the positive control, treated with H2O2, ROS production was high which is ∼99% (Fig. 11).
Colocalization study and ROS generation studies were performed using live cell lines in their log phase.

[5] = Stability study by time-dependent UV-vis spectroscopy; assay type: physicochemical
Procedure: The stability studies of complex IrL1 were conducted in […] different solvents, i.e. aqueous DMSO (H2O : DMSO = 9 : 1) and aqueous GSH medium (Fig. 3) respectively in presence or absence of different concentrations of NaCl. It is essential that the complexes remain stable in the biological environments of cells, and thus the stability studies were performed. […] It has been reported that many cancer cells become resistant to various drugs by increasing their cellular glutathione level.[28]
For doing the cell culture the cells were retained in DMEM media (Gibco), added with 10% fetal bovine serum (Himedia, India), 1% penicillin and streptomycin and 1% of Glutmax (Gibco, Thermo Scientific, USA) at 37°C in 5% CO2. […]
as §1

Work on “[Iridium(III)-Cp*-2-(naphthalen-1-yl)-1H-imidazo[4,5-f][1,10]phenanthroline]PF6 [IrL1]” yielded an IC50 [1] of 11.4 µM, a G0/G1 phase cells (MDA-MB-468 cells [2]) of 53.32% and a G2/M phase cells (MDA-MB-468 cells [2]) of roughly 18.37%. It also gave a S phase cells (MDA-MB-468 cells [2]) of roughly 28.32%, an early apoptotic cells (MDA-MB-468 cells [3]) of roughly 34.89% and a viable cell population (MDA-MB-468 cells [3]) of roughly 51.37%. For the same substance, the DCF positive cells (MDA-MB-468 cells [4]; 1 μM) was 55.01%, the DCF positive cells (MDA-MB-468 cells [4]; 3 μM) was 70.67% and the decrease in absorbance ([5]; aqueous DMSO (H2O : DMSO = 9 : 1), after 24 h) was 15–30%. The “effect of GSH on stability” value ([5]; excess (10 eq.) glutathione, time-dependent UV spectroscopy) was “GSH didn't have much impact on the stability”.
